Source: article PMC11083775, “Synthesis, In Silico and Kinetics Evaluation of N-(β-D-glucopyranosyl)-2-arylimidazole-4(5)-carboxamides and N-(β-D-glucopyranosyl)-4(5)-arylimidazole-2-carboxamides as Glycogen Phosphorylase Inhibitors” (International Journal of Molecular Sciences, 2024)

Target: T1, rabbit muscle glycogen phosphorylase b (rmGPb) (Oryctolagus cuniculus, UniProt P00489)
T1 sequence (P00489 1-843): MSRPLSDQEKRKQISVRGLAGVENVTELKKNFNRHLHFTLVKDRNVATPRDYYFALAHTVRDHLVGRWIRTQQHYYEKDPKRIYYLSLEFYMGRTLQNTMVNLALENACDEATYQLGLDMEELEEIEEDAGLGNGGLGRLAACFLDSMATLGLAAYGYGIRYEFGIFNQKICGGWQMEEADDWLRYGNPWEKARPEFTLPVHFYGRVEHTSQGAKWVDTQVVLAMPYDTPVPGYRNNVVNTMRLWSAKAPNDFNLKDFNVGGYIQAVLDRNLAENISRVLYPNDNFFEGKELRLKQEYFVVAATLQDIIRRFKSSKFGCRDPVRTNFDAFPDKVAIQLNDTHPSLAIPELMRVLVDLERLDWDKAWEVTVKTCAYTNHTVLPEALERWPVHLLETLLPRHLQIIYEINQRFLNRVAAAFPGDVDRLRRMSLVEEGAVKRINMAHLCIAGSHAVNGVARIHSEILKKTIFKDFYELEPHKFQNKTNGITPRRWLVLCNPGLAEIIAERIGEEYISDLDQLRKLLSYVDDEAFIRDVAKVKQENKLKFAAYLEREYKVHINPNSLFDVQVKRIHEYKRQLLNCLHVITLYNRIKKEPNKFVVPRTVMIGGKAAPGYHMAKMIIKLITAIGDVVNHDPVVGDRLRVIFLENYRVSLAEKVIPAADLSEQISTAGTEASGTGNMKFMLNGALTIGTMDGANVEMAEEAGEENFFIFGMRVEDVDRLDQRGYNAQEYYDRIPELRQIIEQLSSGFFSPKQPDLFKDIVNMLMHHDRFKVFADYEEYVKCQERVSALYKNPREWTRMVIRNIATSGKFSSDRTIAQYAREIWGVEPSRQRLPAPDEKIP
Experiment: Kinetics of rabbit muscle GPb inhibition, assayed in the direction of glycogen synthesis
Assay type: biochemical
Settings: 10 μg/mL enzyme, glucose-1-phosphate 4–40 mM, 1% glycogen, 1 mM AMP, at least three independent experiments, ± SD, read-out: Inhibition constant (Ki)
Method: Inhibitory constants (Ki) were determined for rabbit muscle glycogen phosphorylase. Enzyme activity was assayed in the direction of glycogen synthesis, as previously published. The experiments were performed using the rabbit muscle phosphorylase b (dephosphorylated, GPb) isoform. Kinetic data for the inhibition of GPb by the compounds were obtained in the presence of 10 μg/mL of the enzyme, varying the concentrations of α-D-glucose-1-phosphate (4–40 mM) and using constant concentrations (1%) of glycogen and AMP (1 mM). The enzymatic activities were presented in the form of a double reciprocal plot (Lineweaver–Burk). The plots were analysed using a non-linear data analysis program. The inhibitor constants (Ki) were determined using secondary plots, replotting the slopes from the Lineweaver–Burk plot against the inhibitor concentrations. The means of the standard errors for all calculated kinetic parameters averaged to less than 10% [40].

Row | Ki | Compound
1 | 10.4 ± 6.2 µM | O=C(N[C@@H]1O[C@H](CO)[C@@H](O)[C@H](O)[C@H]1O)c1cnc(-c2ccccc2)[nH]1 [Compound 1a, N-(β-D-Glucopyranosyl)-2-phenyl-1H-imidazole-4(5)-carboxamide]
2 | 16.2 ± 8.1 µM | O=C(N[C@@H]1O[C@H](CO)[C@@H](O)[C@H](O)[C@H]1O)c1cnc(-c2cccc3ccccc23)[nH]1 [Compound 1b, N-(β-D-Glucopyranosyl)-2-(1-naphthyl)-1H-imidazole-4(5)-carboxamide]
3 | 12.8 ± 3 µM | O=C(N[C@@H]1O[C@H](CO)[C@@H](O)[C@H](O)[C@H]1O)c1cnc(-c2ccc3ccccc3c2)[nH]1 [Compound 1c, N-(β-D-Glucopyranosyl)-2-(2-naphthyl)-1H-imidazole-4(5)-carboxamide]
4 | 67.4 ± 9.7 µM | O=C(N[C@@H]1O[C@H](CO)[C@@H](O)[C@H](O)[C@H]1O)c1ncc(-c2ccccc2)[nH]1 [Compound 2a, N-(β-D-Glucopyranosyl)-4(5)-phenyl-1H-imidazole-2-carboxamide]
5 | 4.1 ± 0.8 µM | O=C(N[C@@H]1O[C@H](CO)[C@@H](O)[C@H](O)[C@H]1O)c1ncc(-c2cccc3ccccc23)[nH]1 [Compound 2b, N-(β-D-Glucopyranosyl)-4(5)-(1-naphthyl)-1H-imidazole-2-carboxamide]
6 | 3.3 ± 0.1 µM | O=C(N[C@@H]1O[C@H](CO)[C@@H](O)[C@H](O)[C@H]1O)c1ncc(-c2ccc3ccccc3c2)[nH]1 [Compound 2c, N-(β-D-Glucopyranosyl)-4(5)-(2-naphthyl)-1H-imidazole-2-carboxamide]

Target: T1, rabbit muscle glycogen phosphorylase b (rmGPb)
Experiment: not given
Settings: cited from earlier work

Row | Compound | Ki
7 | O=C(N[C@@H]1O[C@H](CO)[C@@H](O)[C@H](O)[C@H]1O)c1nc(-c2ccc3ccccc3c2)no1 [VIIIc] | no inh.
8 | O=C(N[C@@H]1O[C@H](CO)[C@@H](O)[C@H](O)[C@H]1O)c1noc(-c2ccc3ccccc3c2)n1 [VIIc] | no inh.
